Measured values reported in ChEMBL document CHEMBL4765419, “Design, synthesis and bioactivity evaluation of novel arylalkene-amide derivatives as dual-target antifungal inhibitors” (Eur J Med Chem, 2020).
Activity calls are given as the source filed them. The rule behind the calls is not given here.

How the values were obtained:
Candida albicans SC5314 [1] = test: Inhibition of CYP51 in Candida albicans ATCC SC5314 assessed as ergosterol level at 4 ug/ml incubated for 16 hrs by LC/MS analysis (reference value: 79.43 %); design: scale not given: the % may be the effect or the level left; settings: dose 4.0 µg/ml
Candida albicans SC5314 [2] = test: Inhibition of CYP51 in Candida albicans ATCC SC5314 assessed as squalene level at 4 ug/ml incubated for 16 hrs by LC/MS analysis (reference value: 2.25 %); design: scale not given: the % may be the effect or the level left; settings: dose 4.0 µg/ml
Candida albicans [3] = test: Antifungal activity against fluconazole-resistant Candida albicans 632 assessed as inhibition of microbial growth by two fold broth microdilution method; type: functional
Candida tropicalis = test: Antifungal activity against Candida tropicalis assessed as inhibition of microbial growth by two fold broth microdilution method; type: functional
Nakaseomyces glabratus = test: Antifungal activity against Candida glabrata assessed as inhibition of microbial growth by two fold broth microdilution method; type: functional
Candida albicans SC5314 [4] = test: Inhibition of CYP51 in Candida albicans ATCC SC5314 assessed as lanosterol level at 4 ug/ml incubated for 16 hrs by LC/MS analysis (reference value: 6.62 %); design: scale not given: the % may be the effect or the level left; settings: dose 4.0 µg/ml
Candida albicans SC5314 [5] = test: Inhibition of CYP51 in Candida albicans ATCC SC5314 assessed as unidentified sterol level at 4 ug/ml incubated for 16 hrs by LC/MS analysis (reference value: 7.03 %); design: scale not given: the % may be the effect or the level left; settings: dose 4.0 µg/ml
Candida albicans [6] = test: Antifungal activity against Candida albicans assessed as inhibition of microbial growth by two fold broth microdilution method; type: functional
Candida albicans [7] = test: Antifungal activity against fluconazole-resistant Candida albicans 17# assessed as inhibition of microbial growth by two fold broth microdilution method; type: functional
Candida albicans SC5314 [8] = test: Inhibition of CYP51 in Candida albicans ATCC SC5314 assessed as eburicol level at 4 ug/ml incubated for 16 hrs by LC/MS analysis (reference value: 4.67 %); design: scale not given: the % may be the effect or the level left; settings: dose 4.0 µg/ml
Candida albicans [9] = test: Antifungal activity against fluconazole-resistant Candida albicans 904 assessed as inhibition of microbial growth by two fold broth microdilution method; type: functional
Candida albicans [10] = test: Antifungal activity against fluconazole-resistant Candida albicans 901 assessed as inhibition of microbial growth by two fold broth microdilution method; type: functional
Candida albicans [11] = test: Antifungal activity against Candida albicans ATCC SC5314 assessed as decrease in fungal cell density by polarizing microscopy; type: functional, organism-based
Candida albicans [12] = test: Antifungal activity against fluconazole-resistant Candida albicans CaR assessed as inhibition of microbial growth by two fold broth microdilution method; type: functional
Pichia kudriavzevii = test: Antifungal activity against Candida krusei assessed as inhibition of microbial growth by two fold broth microdilution method; type: functional
Aspergillus fumigatus = test: Antifungal activity against Aspergillus fumigatus assessed as inhibition of microbial growth by two fold broth microdilution method; type: functional

OC(Cn1cncn1)(Cn1cncn1)c1ccc(F)cc1F [FLUCONAZOLE]
Activity (Candida albicans SC5314 [1]): 7.62% | Activity (Candida albicans SC5314 [2]): 3.68% | MIC (Candida albicans [3]): > 16 µg/mL | MIC (Candida tropicalis): 0.5 µg/mL | MIC (Nakaseomyces glabratus): 0.5 µg/mL | Activity (Candida albicans SC5314 [4]): 13.9% | Activity (Candida albicans SC5314 [5]): 9.26% | MIC (Candida albicans [6]): 0.25 µg/mL | MIC (Candida albicans [7]): > 16 µg/mL | Activity (Candida albicans SC5314 [8]): 65.5% | MIC (Candida albicans [9]): > 16 µg/mL | MIC (Candida albicans [10]): > 16 µg/mL | Activity (Candida albicans [11]): Active | MIC (Candida albicans [12]): > 16 µg/mL | MIC (Pichia kudriavzevii): 1 µg/mL | MIC (Aspergillus fumigatus): > 16 µg/mL
